Patent US20020137929A1, “1 - (3-heterocyclylphenyl) isothiourea, -isourea, -guanidine and -amidine herbicidal agents” (Intellectual Property Department, BASF Aktiengesellschaft, priority 1998, published 2002)

Tests used:
CASOB (Sicklepod) = test: Postemergence herbicidal evaluation; assay type: in vivo, Cassia obtusifolia
How it was run: (§1)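 Herbicidal effect was judged by eye on a 0–9 scale covering stand, vigor, deformity, size and chlorosis, compared with controls, four to five weeks after seedlings about two weeks old were sprayed (40 psi, ~0.0156–0.500 kg/ha).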

GALAP (Galium) = test: Postemergence herbicidal evaluation; assay type: in vivo, Galium aparine
How it was run: as §1

ZEAMX (Corn, Field) [1] = test: Postemergence herbicidal evaluation; assay type: in vivo, Zea mays
How it was run: as §1

AMBEL (Ragweed, Common) = test: Preemergence herbicidal evaluation; assay type: in vivo, Ambrosia artemisifolia; details: rated 4-5 weeks after treatment
How it was run: (§2)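 Scores (0–9) reflect visual comparison with control plants for stand, vigor, malformation, size and chlorosis. Compound was applied to the soil after sowing, before emergence, as an aqueous acetone spray (about 0.0156–0.500 kg/ha), and cups were kept in a greenhouse for 4–5 weeks.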

[2] = tested on: CHEAL (Lambsquarters, Common); test: Preemergence herbicidal evaluation; assay type: in vivo, Chenopodium album; details: rated 4-5 weeks after treatment
How it was run: as §2

[3] = tested on: IPOHE (Morningglory, Ivyleaf); test: Preemergence herbicidal evaluation; assay type: in vivo, Ipomoea hederacea; details: rated 4-5 weeks after treatment
How it was run: as §2

ORYSAT (Rice, Tebonnet) = test: Preemergence herbicidal evaluation; assay type: in vivo, Oryza sativa, (L.) Tebonnet; details: rated 4-5 weeks after treatment
How it was run: as §2

[4] = tested on: TRZAWR (Wheat, Winter, cv Riband); test: Preemergence herbicidal evaluation; assay type: in vivo, Triticum aestivum; details: rated 4-5 weeks after treatment
How it was run: as §2

ZEAMX (Corn, Field) [5] = test: Preemergence herbicidal evaluation; assay type: in vivo, Zea mays; details: rated 4-5 weeks after treatment
How it was run: as §2

[6] = tested on: ECHORC (Watergrass (Calif.)); test: Preemergence weed control under flooded paddy conditions; assay type: in vivo, Echinochloa oryzoides; details: rated 3-4 weeks after treatment
How it was run: (§3)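 Silt loam, seeds in top 0.5 cm; flood held 1.5-3 cm; test cpd as acetone/water 50/50 into flood water, ~0.0313-0.500 kg/ha a.i.; greenhouse 3-4 wk; visual 0-9 score vs control.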

CYPIR (Rice Flatsedge) = test: as above; assay type: in vivo, Cyperus iria; details: rated 3-4 weeks after treatment
How it was run: as §3

CYPSE (Flatsedge) [7] = test: as above; assay type: in vivo, Cyperus serotinus; details: rated 3-4 weeks after treatment
How it was run: as §3

[8] = tested on: ECHORC (Watergrass (Calif.)); test: Postemergence weed control under flooded paddy conditions; assay type: in vivo, Echinochloa oryzoides; details: postemergence weeds, 3-4 weeks after treatment
How it was run: (§4)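 Containers holding 3–5 cm weeds and rice at 1.5–2.5 leaves are flooded to 1.5–3 cm above soil. Compound in 50/50 v/v aqueous/acetone is then added directly to the water, about 0.0313–0.500 kg/ha. Plants are kept in the greenhouse and rated 0–9 visually at 3–4 weeks.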

CYPSE (Flatsedge) [9] = test: as above; assay type: in vivo, Cyperus serotinus; details: postemergence weeds, 3-4 weeks after treatment
How it was run: as §4

CCOC(=O)CN1CC(=O)N(CC(=O)OCC)C1=Nc1cc(-n2c(=O)cc(C(F)(F)F)n(C)c2=O)c(F)cc1Cl [Compound 34, 2-{{2-Chloro-5-[3,6-dihydro-3-methyl-2,6-dioxo-4-(trifluoromethyl)-1(2H)-pyrimidinyl]-4-fluoro-phenyl}imino}-4-oxo-1,3-imidazolidinediacetic acid, diethyl ester]
9.0: Postemergence herbicidal rating GALAP (GALAP (Galium); Rate 0.0315 kg/ha) | Preemergence herbicidal rating CHEAL ([2]; rate 0.0313 kg/ha) | Preemergence herbicidal rating CHEAL ([2]; rate 0.0625 kg/ha) | Preemergence herbicidal rating CHEAL ([2]; rate 0.1250 kg/ha) | Preemergence herbicidal rating CHEAL ([2]; rate 0.2500 kg/ha) | Preemergence herbicidal rating IPOHE ([3]; rate 0.2500 kg/ha) | Preemergence herbicidal rating ZEAMX (ZEAMX (Corn, Field) [5]; rate 0.2500 kg/ha) | Herbicidal rating ECHORC ([6]; 0.2500 kg/ha) | Herbicidal rating ECHORC ([8]; rate 0.2500 kg/ha)
6.0: Postemergence herbicidal rating GALAP (GALAP (Galium); Rate 0.0630 kg/ha)
6.5: Postemergence herbicidal rating ZEAMX (ZEAMX (Corn, Field) [1]; Rate 0.0315 kg/ha)
1.0: Preemergence herbicidal rating TRZAWR ([4]; rate 0.1250 kg/ha)
4.0: Postemergence herbicidal rating GALAP (GALAP (Galium); Rate 0.0158 kg/ha) | Preemergence herbicidal rating AMBEL (AMBEL (Ragweed, Common); rate 0.0625 kg/ha) | Preemergence herbicidal rating AMBEL (AMBEL (Ragweed, Common); rate 0.1250 kg/ha) | Herbicidal rating ECHORC ([6]; 0.0625 kg/ha) | Herbicidal rating ECHORC ([6]; 0.1250 kg/ha) | Herbicidal rating ECHORC ([8]; rate 0.0625 kg/ha) | Herbicidal rating ECHORC ([8]; rate 0.1250 kg/ha)
2.0: Preemergence herbicidal rating ORYSAT (ORYSAT (Rice, Tebonnet); rate 0.1250 kg/ha)
5.0: Preemergence herbicidal rating ORYSAT (ORYSAT (Rice, Tebonnet); rate 0.2500 kg/ha) | Preemergence herbicidal rating TRZAWR ([4]; rate 0.2500 kg/ha)
7.0: Postemergence herbicidal rating ZEAMX (ZEAMX (Corn, Field) [1]; Rate 0.0630 kg/ha) | Preemergence herbicidal rating AMBEL (AMBEL (Ragweed, Common); rate 0.2500 kg/ha) | Preemergence herbicidal rating ZEAMX (ZEAMX (Corn, Field) [5]; rate 0.1250 kg/ha)
0.0: Postemergence herbicidal rating CASOB (CASOB (Sicklepod); Rate 0.0158 kg/ha) | Postemergence herbicidal rating CASOB (CASOB (Sicklepod); Rate 0.0315 kg/ha) | Postemergence herbicidal rating CASOB (CASOB (Sicklepod); Rate 0.0630 kg/ha) | Preemergence herbicidal rating AMBEL (AMBEL (Ragweed, Common); rate 0.0313 kg/ha) | Preemergence herbicidal rating IPOHE ([3]; rate 0.0313 kg/ha) | Preemergence herbicidal rating ORYSAT (ORYSAT (Rice, Tebonnet); rate 0.0313 kg/ha) | Preemergence herbicidal rating ORYSAT (ORYSAT (Rice, Tebonnet); rate 0.0625 kg/ha) | Preemergence herbicidal rating TRZAWR ([4]; rate 0.0313 kg/ha) | Preemergence herbicidal rating TRZAWR ([4]; rate 0.0625 kg/ha) | Preemergence herbicidal rating ZEAMX (ZEAMX (Corn, Field) [5]; rate 0.0313 kg/ha) | Herbicidal rating CYPIR (CYPIR (Rice Flatsedge); 0.0313 kg/ha) | Herbicidal rating CYPIR (CYPIR (Rice Flatsedge); 0.0625 kg/ha) | Herbicidal rating CYPIR (CYPIR (Rice Flatsedge); 0.1250 kg/ha) | Herbicidal rating CYPIR (CYPIR (Rice Flatsedge); 0.2500 kg/ha) | Herbicidal rating CYPSE (CYPSE (Flatsedge) [7]; 0.0313 kg/ha) | Herbicidal rating CYPSE (CYPSE (Flatsedge) [7]; 0.0625 kg/ha) | Herbicidal rating CYPSE (CYPSE (Flatsedge) [7]; 0.1250 kg/ha) | Herbicidal rating CYPSE (CYPSE (Flatsedge) [7]; 0.2500 kg/ha) | Herbicidal rating CYPSE (CYPSE (Flatsedge) [9]; rate 0.0313 kg/ha) | Herbicidal rating CYPSE (CYPSE (Flatsedge) [9]; rate 0.0625 kg/ha) | Herbicidal rating CYPSE (CYPSE (Flatsedge) [9]; rate 0.1250 kg/ha) | Herbicidal rating CYPSE (CYPSE (Flatsedge) [9]; rate 0.2500 kg/ha)
5.5: Postemergence herbicidal rating ZEAMX (ZEAMX (Corn, Field) [1]; Rate 0.0158 kg/ha)
3.0: Preemergence herbicidal rating IPOHE ([3]; rate 0.0625 kg/ha) | Preemergence herbicidal rating IPOHE ([3]; rate 0.1250 kg/ha) | Preemergence herbicidal rating ZEAMX (ZEAMX (Corn, Field) [5]; rate 0.0625 kg/ha) | Herbicidal rating ECHORC ([6]; 0.0313 kg/ha) | Herbicidal rating ECHORC ([8]; rate 0.0313 kg/ha)
